This note sets out measurements from PubChem BioAssay (NCI).

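Interpolation was linear, between the two tested concentrations surrounding the appropriate level; five concentrations were tested over 48 hours in 96-well plates. The concentration for full growth arrest is given as TGI.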

Test systems include MDA-N; IGROV1 ovarian; SR leukemia; CCRF-CEM leukemia; SK-MEL-28 melanoma; DU-145 prostate; HT29 colon; MDA-MB-231 breast; CAKI-1 renal.
Holding throughout (test): inhibition of tumour cell growth, NCI panel, 48 h

As for `CC[C@H](NC(=O)OC(C)(C)C)C(=O)NCP(=O)(OCc1ccc([N+](=O)[O-])cc1)OCc1ccc([N+](=O)[O-])cc1`, the TGI is 86.1 µM with MDA-N; more than 100 µM with IGROV1 ovarian; more than 100 µM with SR leukemia; more than 100 µM with CCRF-CEM leukemia; 92.9 µM in the assay with SK-MEL-28 melanoma; more than 100 µM in the assay on DU-145 prostate. Besides, the results for the TGI in the assay with HT29 colon, with MDA-MB-231 breast and in the assay on CAKI-1 renal were 51.8 µM, more than 100 µM and more than 100 µM, respectively.
Regarding `O=C1C=CC(=O)c2c(O)c(N3CCC[C@@H]3CO)c(Cl)c(O)c21`, the TGI with MDA-N worked out at 3.15 µM; in the assay on IGROV1 ovarian, 3.27 µM; in the assay on SR leukemia, 4.88 µM; with CCRF-CEM leukemia it was 0.869 µM; in the assay with SK-MEL-28 melanoma, 3.24 µM; in the assay on DU-145 prostate it was 3.28 µM. Besides, the figures for the TGI in the assay with HT29 colon, with MDA-MB-231 breast and in the assay with CAKI-1 renal were 4.9 µM, 4.03 µM and 2.94 µM, respectively.
Take `COc1cc2c(cc1OCc1ccccc1)NC(=O)[C@@H]1CCCN1C2=O`: the TGI in the assay with MDA-N, in the assay on IGROV1 ovarian, in the assay on SR leukemia, in the assay with CCRF-CEM leukemia, with SK-MEL-28 melanoma and in the assay on DU-145 prostate was more than 100 µM throughout. Also, the TGI in the assay with HT29 colon, in the assay on MDA-MB-231 breast and with CAKI-1 renal was more than 100 µM throughout.
With `CC1(C)C=C(/C=C2/N(S(=O)(=O)C(F)(F)F)C(/C=C3/N(S(=O)(=O)C(F)(F)F)C(C)(C#N)CC3(C)C)=CC2(C)C)N=C1/C=C1/CC(C)(C)C(=O)N1` (configuration not stated), the TGI is more than 100 µM with MDA-N; 62.9 µM with IGROV1 ovarian; more than 100 µM in the assay with SR leukemia; 52.8 µM with CCRF-CEM leukemia; more than 100 µM with SK-MEL-28 melanoma; more than 100 µM in the assay on DU-145 prostate. Moreover, the TGI with HT29 colon, in the assay with MDA-MB-231 breast and in the assay with CAKI-1 renal was more than 100 µM throughout.
For the compound `CCn1ncc2c(=O)n3ncn(-c4ccc(Br)cc4)c3nc21`, the TGI in the assay with MDA-N, with IGROV1 ovarian, with SR leukemia, in the assay with CCRF-CEM leukemia, in the assay with SK-MEL-28 melanoma and with DU-145 prostate was more than 100 µM throughout. Besides, the TGI with HT29 colon and with MDA-MB-231 breast was more than 100 µM each time.
For the compound `COc1ccc2c(c1OC)C(=O)N1C2=Cc2c(cc3c(c2OC)OCO3)CC1N(C)C` (configuration not stated), the TGI with MDA-N, in the assay on IGROV1 ovarian, with SR leukemia, with CCRF-CEM leukemia, in the assay with SK-MEL-28 melanoma and in the assay on DU-145 prostate was more than 100 µM each time. Moreover, the TGI in the assay on MDA-MB-231 breast and in the assay with CAKI-1 renal was more than 100 µM in each case.
`NC(=O)c1ccc[n+](C2=C([O-])c3ccccc3C(=O)/C2=N\S(=O)(=O)c2ccccc2)c1`: the TGI in the assay on MDA-N was 31 µM; in the assay on IGROV1 ovarian, 24.5 µM; in the assay on SR leukemia, more than 100 µM; in the assay with CCRF-CEM leukemia, more than 100 µM; in the assay on SK-MEL-28 melanoma it was 30.2 µM; in the assay with DU-145 prostate, 34 µM. Moreover, the results for the TGI in the assay on HT29 colon, in the assay on MDA-MB-231 breast and in the assay on CAKI-1 renal were 34 µM, 34.5 µM and 37.1 µM, respectively.
For the compound `Cn1c(=O)cc(NNc2ccc(Cl)c(Cl)c2)[nH]c1=O`, the TGI is 23.3 µM in the assay with MDA-N; 23.5 µM with IGROV1 ovarian; more than 100 µM in the assay on SR leukemia; 37.3 µM in the assay on CCRF-CEM leukemia; 25.1 µM with SK-MEL-28 melanoma; more than 100 µM in the assay on DU-145 prostate. For the same compound, the TGI amounted to 40.9 µM with HT29 colon, 23.9 µM in the assay with MDA-MB-231 breast and 27.3 µM in the assay on CAKI-1 renal.
For `Clc1ccc(/C(=C/c2ccccc2)Cn2ccnc2)cc1`, the TGI is 46.6 µM with MDA-N; more than 100 µM in the assay with IGROV1 ovarian; 78.4 µM with SR leukemia; more than 100 µM in the assay with CCRF-CEM leukemia; more than 100 µM with SK-MEL-28 melanoma; more than 100 µM with DU-145 prostate. The TGI in the assay on HT29 colon, in the assay with MDA-MB-231 breast and in the assay on CAKI-1 renal was more than 100 µM each time.
Consider `CC(=O)Oc1ccn2nc(C)c(Br)c2c1`, for which the TGI in the assay with MDA-N, in the assay on IGROV1 ovarian, with SR leukemia, with CCRF-CEM leukemia, in the assay with SK-MEL-28 melanoma and in the assay on DU-145 prostate was more than 100 µM throughout. The TGI with HT29 colon and in the assay with MDA-MB-231 breast was more than 100 µM in each case.
Regarding `Cc1ccc(C)c(COCCOCn2cc(N3CCOCC3)c(=O)[nH]c2=O)c1`, the TGI in the assay with MDA-N, in the assay with IGROV1 ovarian, with SR leukemia, in the assay with CCRF-CEM leukemia, in the assay with SK-MEL-28 melanoma and with DU-145 prostate was more than 100 µM in each case. Further, the TGI with MDA-MB-231 breast and with CAKI-1 renal was more than 100 µM each time.
For the compound `O=C1CSC(c2c[nH]c3ccccc23)N1c1ccc(Cl)cc1Cl` (configuration not stated), the TGI in the assay on MDA-N, in the assay on IGROV1 ovarian, in the assay with SR leukemia, in the assay with CCRF-CEM leukemia, with SK-MEL-28 melanoma and in the assay on DU-145 prostate was more than 100 µM each time. Also, the TGI with HT29 colon and in the assay with MDA-MB-231 breast was more than 100 µM each time.
Take `CSc1ncc2c(n1)-c1ccccc1OC2NC1CC1` (configuration not stated): the TGI in the assay with MDA-N, in the assay on IGROV1 ovarian, with SR leukemia, in the assay with CCRF-CEM leukemia, with DU-145 prostate and in the assay on HT29 colon was more than 100 µM each time. Further, the values for the TGI in the assay on MDA-MB-231 breast and in the assay on CAKI-1 renal were more than 100 µM and 86.3 µM, respectively.
On to `CN1C2=Nc3n(c4ccccc4[n+]3C)CN2c2ccccc21`, for which the TGI in the assay on MDA-N was 50.5 µM; in the assay on IGROV1 ovarian it was more than 100 µM; in the assay on SR leukemia it was 81.5 µM; with CCRF-CEM leukemia it was more than 100 µM; in the assay on DU-145 prostate, more than 100 µM; in the assay with HT29 colon, more than 100 µM. Besides, the TGI in the assay with MDA-MB-231 breast and with CAKI-1 renal was more than 100 µM throughout.
On to `O=c1c2cc([N+](=O)[O-])ccc2oc2nc3n(c(=O)c12)CCCS3`, for which the TGI in the assay on MDA-N, with IGROV1 ovarian, with SR leukemia, in the assay with CCRF-CEM leukemia, in the assay on SK-MEL-28 melanoma and in the assay with DU-145 prostate was more than 100 µM throughout. Besides, the TGI with MDA-MB-231 breast and with CAKI-1 renal was more than 100 µM in each case.
